One block for each compound: values may come before it.
Test: photoluminescence quantum yield (fraction); solvent given as SMILES

SMILES: CCOC(=O)CN1C(=O)C2=C(c3ccc(N4CCCCC4)cc3)N(CC(=O)OCC)C(=O)C2=C1c1ccccc1
photoluminescence quantum yield (in CC#N): 0.01
photoluminescence quantum yield (in CS(C)=O): 0.12
photoluminescence quantum yield (in Cc1ccccc1): 0.34

SMILES: CC(C)(C)c1ccc(C2=C(c3ccc(C(C)(C)C)cc3)C(c3ccc(C(C)(C)C)cc3)=[N+]3C2=C(c2ccccc2)c2c(-c4ccc(C(C)(C)C)cc4)c(-c4ccc(C(C)(C)C)cc4)c(-c4ccc(C(C)(C)C)cc4)n2[B-]3(F)F)cc1
photoluminescence quantum yield (in C1CCCCC1): 0.32
photoluminescence quantum yield (in C1CCOC1): 0.3
photoluminescence quantum yield (in CC#N): 0.25
photoluminescence quantum yield (in Cc1ccccc1): 0.57
photoluminescence quantum yield (in ClCCl): 0.45

SMILES: Cc1cc(=O)oc2cc3cc(O)ccc3cc12
photoluminescence quantum yield (in CC#N): 0.02
photoluminescence quantum yield (in CCO): 0.35

SMILES: CCC(CC)COC1=CC2=C3c4cc(OCC(CC)CC)c(-c5cccs5)n4[B-](F)(F)[n+]4nnn(c43)[B-](F)(F)[N+]2=C1c1cccs1
photoluminescence quantum yield (in C1CCOC1): 0.06
photoluminescence quantum yield (in ClCCl): 0.06

SMILES: CC1=[N+]2C(=C(c3ccc(C(=C(c4ccccc4)c4ccccc4)c4ccccc4)cc3)c3ccc(/C=C/c4ccc(C(=C(c5ccccc5)c5ccccc5)c5ccccc5)cc4)n3[B-]2(F)F)C=C1
photoluminescence quantum yield (in C1CCOC1): 0.619

SMILES: CCCCCCOc1cc(C=O)c(OCCCCCC)cc1C=O
photoluminescence quantum yield (in ClCCl): 0.208

SMILES: Cc1cn(C)c(=O)nc1-n1cncn1
photoluminescence quantum yield (in O): 0.071

SMILES: Cc1ccc(N(C)C)cc1C1=C2C=CC(=[N+](C)C)C=C2[Si](C)(C)c2cc(N(C)C)ccc21
photoluminescence quantum yield (in O): 0.001

SMILES: CCN1/C(=C\c2c(-c3ccc(N(C)C)cc3)c(=O)c2=O)C=Cc2ccccc21
photoluminescence quantum yield (in C1CCCCC1): 0.0276
photoluminescence quantum yield (in Cc1ccccc1): 0.0226
photoluminescence quantum yield (in ClCCl): 0.001

SMILES: Cc1c(C)n2c(COC(=O)c3ccc(F)cc3)c(C)c(=O)n2c1=O
photoluminescence quantum yield (in CCO): 0.631

SMILES: FC(F)(F)c1ccc(/C=C/c2nc3c(ccc4ccccc43)s2)cc1
photoluminescence quantum yield (in C1CCCCC1): 0.14
photoluminescence quantum yield (in CC#N): 0.14

SMILES: CN(C)c1ccc(-c2cc[n+](C)cc2)s1
photoluminescence quantum yield (in CCO): 0.003

SMILES: CCOC(=O)c1ccc2c(c1)[nH]c1c3ccc(C(=O)OCC)cc3[se]c21
photoluminescence quantum yield (in CCCO): 0.017

SMILES: CN(C)c1ccc(C=C/C=C/C=C/c2ccc(C#N)cc2)cc1
photoluminescence quantum yield (in C1CCOC1): 0.112
photoluminescence quantum yield (in CC#N): 0.261
photoluminescence quantum yield (in CCCC#N): 0.142
photoluminescence quantum yield (in CCCCCC): 0.072
photoluminescence quantum yield (in CCCCOCCCC): 0.081
photoluminescence quantum yield (in CCO): 0.211
photoluminescence quantum yield (in CCOCC): 0.092

SMILES: COCCN1C(=O)/C(=C/c2cccc(N(C)C)c2)N=C1C
photoluminescence quantum yield (in C1CCOC1): 0.13
photoluminescence quantum yield (in CC#N): 0.04
photoluminescence quantum yield (in CCCCCC): 0.45

SMILES: CC(C)c1ccc2ccc3c(C(C)C)ccc4ccc1c2c43
photoluminescence quantum yield (in CCCCCC): 0.45
photoluminescence quantum yield (in CO): 0.55
photoluminescence quantum yield (in ClCCl): 0.39

SMILES: CCOC(=O)CSc1nc2c(c(C#N)c1C#N)CCCC2
photoluminescence quantum yield (in c1ccccc1): 0.04

SMILES: Cc1cc(C)c(B(c2c(C)cc(C)cc2C)N2c3ccccc3C(c3ccccc3)(c3ccccc3)c3ccccc32)c(C)c1
photoluminescence quantum yield (in C1CCCCC1): 0.732
photoluminescence quantum yield (in Cc1ccccc1): 0.974
photoluminescence quantum yield (in ClCCl): 0.891

SMILES: Cc1ccc(C2=C3C=CC=[N+]3[B-](F)(F)n3cccc32)cc1
photoluminescence quantum yield (in C1CCCCC1): 0.036
photoluminescence quantum yield (in CC#N): 0.018
photoluminescence quantum yield (in CCO): 0.025
photoluminescence quantum yield (in CCOC(C)=O): 0.024
photoluminescence quantum yield (in CO): 0.018
photoluminescence quantum yield (in OCC(F)(F)F): 0.031

SMILES: C/C(=C\c1ccc(Cl)cc1)c1nc2ccccc2s1
photoluminescence quantum yield (in C1CCCCC1): 0.03
photoluminescence quantum yield (in CO): 0.005

SMILES: Cc1ccc(-n2c3ccccc3c3cc(C=C(C#N)C#N)ccc32)cc1
photoluminescence quantum yield (in C1CCOC1): 0.12
photoluminescence quantum yield (in CC#N): 0.04
photoluminescence quantum yield (in CC(C)=O): 0.05
photoluminescence quantum yield (in CCOC(C)=O): 0.09
photoluminescence quantum yield (in CO): 0.03
photoluminescence quantum yield (in CS(C)=O): 0.04
photoluminescence quantum yield (in Cc1ccccc1): 0.11
photoluminescence quantum yield (in ClC(Cl)Cl): 0.08

SMILES: CCCCCCCc1ccc(C2=[N+]3C(=C4c5cc(OCC(CC)CC)c(-c6ccc(CCCCCCC)o6)n5[B-](F)(F)[n+]5nnn(c54)[B-]3(F)F)C=C2OCC(CC)CC)o1
photoluminescence quantum yield (in C1CCOC1): 0.04
photoluminescence quantum yield (in ClCCl): 0.02

SMILES: Cc1cc(C)c(C2=C3C=c4c(c5ccc(C(C)(C)C)cc5c5cc(C(C)(C)C)ccc45)=[N+]3[B-](F)(F)n3c2cc2c4ccc(C(C)(C)C)cc4c4cc(C(C)(C)C)ccc4c23)c(C)c1
photoluminescence quantum yield (in C1CCCCC1): 0.3
photoluminescence quantum yield (in C1CCOC1): 0.25
photoluminescence quantum yield (in CC#N): 0.24
photoluminescence quantum yield (in Cc1ccccc1): 0.29
photoluminescence quantum yield (in ClCCl): 0.25

SMILES: CSc1ccc(/C=C/c2cnc3ccccc3n2)cc1
photoluminescence quantum yield (in ClCCl): 0.02

SMILES: COc1cc(C2=CC3=C(c4c(C)cc(C)cc4C)c4cc(-c5cc(OC)c(OC)c(OC)c5)c(-c5cc(OC)c(OC)c(OC)c5)n4[B-](F)(F)[N+]3=C2c2cc(OC)c(OC)c(OC)c2)cc(OC)c1OC
photoluminescence quantum yield (in C1CCCCC1): 0.33
photoluminescence quantum yield (in C1CCOC1): 0.08
photoluminescence quantum yield (in CC#N): 0.02
photoluminescence quantum yield (in Cc1ccccc1): 0.16
photoluminescence quantum yield (in ClCCl): 0.05

SMILES: CCN1c2ccc(/C=N/Nc3ccccn3)cc2Sc2cc(-c3ccccc3)ccc21
photoluminescence quantum yield (in C1CCOC1): 0.26
photoluminescence quantum yield (in CS(C)=O): 0.37
photoluminescence quantum yield (in Cc1ccccc1): 0.17
photoluminescence quantum yield (in ClCCl): 0.27

SMILES: CC/[NH+]=c1\cc2oc3cc(NCCOC(=O)C(NC(=O)OC(C)(C)C)C(C)C)c4ccccc4c3nc-2cc1C (stereo not given)
photoluminescence quantum yield (in CCO): 0.32
photoluminescence quantum yield (in O): 0.26

SMILES: C[C@]12C(=O)NC(=O)N([C@H]3CC(O)[C@@H](CO)O3)[C@H]1[C@H]1Oc3cc4oc(=O)ccc4cc3[C@H]12 (stereo not given in full)
photoluminescence quantum yield (in CC(C)O): 0.003
photoluminescence quantum yield (in CCO): 0.005
photoluminescence quantum yield (in CCOCC): 0.001
photoluminescence quantum yield (in CO): 0.007
photoluminescence quantum yield (in O): 0.044

SMILES: CC1=N/C(=C\c2cccc(N(C)C)c2)C(=O)N1CCO
photoluminescence quantum yield (in C1CCOC1): 0.12
photoluminescence quantum yield (in CC#N): 0.02
photoluminescence quantum yield (in CCCCCC): 0.43

SMILES: N#Cc1ccc(-n2c(-c3ccc(-c4ccc(-c5nc6c7ccccc7c7ccccc7c6n5-c5ccc(C#N)c6ccccc56)cc4)cc3)nc3c4ccccc4c4ccccc4c32)c2ccccc12
photoluminescence quantum yield (in ClCCl): 0.85

SMILES: COc1cc(/C=C/CO)ccc1O
photoluminescence quantum yield (in O): 0.1

SMILES: CC(C)(C)c1ccc2c(c1)c1cc(C(C)(C)C)ccc1n2-c1c(C#N)c(-n2c3ccc(C(C)(C)C)cc3c3cc(C(C)(C)C)ccc32)c(-n2c3ccc(C(C)(C)C)cc3c3cc(C(C)(C)C)ccc32)c(-n2c3ccc(C(C)(C)C)cc3c3cc(C(C)(C)C)ccc32)c1-n1c2ccc(C(C)(C)C)cc2c2cc(C(C)(C)C)ccc21
photoluminescence quantum yield (in Cc1ccccc1): 0.86

Other lines, results leading:

photoluminescence quantum yield (in ClCCl): 0.37
SMILES: Cc1ccc2nc3cc4c5c(cccc5c3nc2c1)C(c1ccccc1)=C(c1ccccc1)O4

photoluminescence quantum yield (in ClCCl): 0.01
SMILES: CC(=O)c1ccc(C#Cc2ccc3c(N(C)C)cc(-c4ccccc4)cc3c2)cc1

photoluminescence quantum yield (in CC#N): 0.18
photoluminescence quantum yield (in ClCCCl): 0.1
SMILES: c1ccc(-c2cc3c(oc4ccccc43)c(-c3ccccc3)[o+]2)cc1

photoluminescence quantum yield (in C1CCOC1): 0.23
SMILES: Cc1cc(C)c([B-]2(c3c(C)cc(C)cc3C)[O+]=P(c3ccccc3)(c3ccccc3)c3ccsc3-c3sccc32)c(C)c1

photoluminescence quantum yield (in CCO): 0.95
SMILES: OCc1ccc2c3cccc4cccc(c5cccc1c52)c43

photoluminescence quantum yield (in ClCCl): 0.29
SMILES: COc1ccc2cc(C3=[N+]4C(=Nc5c(-c6ccc7ccccc7c6)cc(-c6ccc7cc(OC)ccc7c6)n5[B-]4(F)F)C(c4ccc5ccccc5c4)=C3)ccc2c1

photoluminescence quantum yield (in ClCCl): 0.0361
SMILES: COc1cc(OC)cc(C2=CC(c3ccccc3)=C(c3ccccc3)C2)c1

photoluminescence quantum yield (in C1CCCCC1): 0.001
SMILES: COc1ccc(/C=C(\C)c2nc3ccccc3s2)cc1

photoluminescence quantum yield (in ClCCl): 0.26
SMILES: CC(C)(C)c1ccc(-c2c3cccc4c(-c5ccccc5)cc5c(-c6ccc(C(C)(C)C)cc6)c6cccc7c(-c8ccccc8)cc2c(c76)c5c43)cc1

photoluminescence quantum yield (in C1CCCCC1): 0.05
photoluminescence quantum yield (in CO): 0.006
SMILES: C(=C\c1nc2ccccc2o1)/c1ccccc1

photoluminescence quantum yield (in CC(C)O): 0.1
SMILES: CC[n+]1c(C=C2C(=O)C(C=C3N(C)c4ccccc4C3(C)C)=C2[O-])sc2ccccc21

photoluminescence quantum yield (in ClCCl): 0.18
SMILES: CCCCCCN1C(=O)c2cccc3c(-c4ccc(-c5cc(-c6ccc(C)cc6)nn5-c5ccccc5)s4)ccc(c23)C1=O

photoluminescence quantum yield (in CCCCCC): 0.466
photoluminescence quantum yield (in CO): 0.199
photoluminescence quantum yield (in ClCCl): 0.646
SMILES: Nc1ccc(C#Cc2ccc3ccc4ccc(C#Cc5ccc(N)cc5)c5ccc2c3c45)cc1

photoluminescence quantum yield (in CC1CCCO1): 0.64
SMILES: CC1=CC(C)=[N+]2C1=C(c1ccc(C)cc1)c1c(C)cc(/C=C/c3ccc4ccc5cccc6ccc3c4c56)n1[B-]2(F)F

photoluminescence quantum yield (in C1CCCCC1): 0.19
SMILES: COc1ccc2c3c(c4ccc(OC)cc4c2c1)C(C)(C)c1ccccc1-3

photoluminescence quantum yield (in C1CCCCC1): 0.66
SMILES: c1ccc(-c2ccc(-c3ccc4c(c3)CCO4)cc2)cc1

photoluminescence quantum yield (in CC#N): 0.05
photoluminescence quantum yield (in CCCCCC): 0.08
photoluminescence quantum yield (in CCOC(C)=O): 0.04
photoluminescence quantum yield (in CO): 0.05
photoluminescence quantum yield (in ClCCl): 0.07
SMILES: COc1ccc2n1[B-](F)(F)[N+]1=C(SC#N)C=CC1=C2c1ccccc1

photoluminescence quantum yield (in ClCCl): 0.76
SMILES: CN(C)c1ccc(C2=C3C=C(c4ccc(C#N)cc4)S[C@]34c3ccccc3[C@H]2c2ccccc24)cc1

photoluminescence quantum yield (in ClCCl): 0.025
SMILES: COc1ccc(-c2cn3cc(C)c[n+]3[n-]2)cc1

photoluminescence quantum yield (in C1CCCCC1): 0.042
photoluminescence quantum yield (in CC#N): 0.065
photoluminescence quantum yield (in CCO): 0.064
photoluminescence quantum yield (in c1ccccc1): 0.065
SMILES: CNc1cccc2c1C(=O)c1ccccc1-2

photoluminescence quantum yield (in ClCCl): 0.28
SMILES: COc1ccc(-c2cc3c(ccc4sc(/C=C/c5cccs5)cc43)s2)cc1

photoluminescence quantum yield (in CC#N): 0.36
photoluminescence quantum yield (in CCO): 0.71
photoluminescence quantum yield (in CN(C)C=O): 0.35
photoluminescence quantum yield (in O): 0.3
SMILES: CCCCOC(=O)c1ccccc1-c1c2ccc(=[N+](CC)CC)cc-2oc2cc(N(CC)CC)ccc12

photoluminescence quantum yield (in c1cc(-n2c3ccccc3c3ccccc32)cc(-n2c3ccccc3c3ccccc32)c1): 0.93
SMILES: N#Cc1cc(-n2c3ccccc3c3ncccc32)c(-n2c3ccccc3c3ncccc32)cc1C#N

photoluminescence quantum yield (in ClCCl): 0.00157
SMILES: COc1cc2c(cc1OC)C1=C[C@H](c3ccccc3)C3(C(C(=O)O[C@@H]4C[C@H]5CC[C@@H]4C5)=C(C(=O)O[C@H]4C[C@@H]5CC[C@H]4C5)N1CC2)c1ccccc1-c1ccccc13

Source: the Deep4Chem optical property database
